Inconclusive results and toxic doses are left out. Non-standard residues stand in square brackets, D forms with d. Residues, ends and D or L forms follow the SMILES beside them. ξ: configuration not given here. *: point of attachment. Boc = CC(C)(C)OC(=O)*; ξP = O=C(O)C1CCCN1
Test system: BDF1 mice, P388 leukemia ip, median survival T/C
Assay: NCI In Vivo Anticancer Drug Screen. Data for tumor model P388 Leukemia (intraperitoneal) in B6D2F1 (BDF1) mice
Details: endpoint: median survival time, higher = longer survival
In short: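 T/C = treated-group survival ÷ vehicle-control survival; tumour transplanted into mice before dosing.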

[1] = dose: 100.0 mg/kg/injection, schedule: Q01DX009 (ip), vehicle: saline with Tween-80
[2] = dose: 200.0 mg/kg/injection, schedule: Q01DX009 (ip), vehicle: saline with Tween-80
[3] = dose: 400.0 mg/kg/injection, schedule: Q01DX009 (ip), vehicle: saline with Tween-80
[4] = dose: 100.0 mg/kg/injection, schedule: Q04DX003 (ip), vehicle: saline with Tween-80
[5] = dose: 100.0 mg/kg/injection, schedule: Q01DX009 (ip), vehicle: Klucel (hydroxypropylcellulose) (HPC)
[6] = dose: 100.0 mg/kg/injection, schedule: Q04DX003 (ip), vehicle: saline
[7] = dose: 200.0 mg/kg/injection, schedule: Q04DX003 (ip), vehicle: saline

With O=C1c2ccccc2C(=Cc2ccccc2)c2ccccc21 the T/C [1] was 118 % of control, the T/C [2] was 100 % of control and the T/C [3] was 113 % of control.
In the case of CO[C@H]1C[C@H](O[C@H]2CC[C@]3(C=O)[C@H]4CC[C@]5(C)[C@@H](C6=CC(=O)OC6)CC[C@]5(O)[C@@H]4CC[C@]3(O)C2)O[C@H](C)[C@H]1O[C@@H]1O[C@H](CO)[C@@H](O)[C@H](O)[C@H]1O, the T/C (dose: 0.25 mg/kg/injection, schedule: Q01DX009 (ip), vehicle: saline) is reported as 104 % of control, the T/C (dose: 0.25 mg/kg/injection, schedule: Q04DX003 (ip), vehicle: saline) is reported as 91 % of control and the T/C (dose: 0.5 mg/kg/injection, schedule: Q01DX009 (ip), vehicle: saline) is reported as 100 % of control. For the same compound, the T/C (dose: 0.5 mg/kg/injection, schedule: Q04DX003 (ip), vehicle: saline) was 104 % of control, the T/C (dose: 1.0 mg/kg/injection, schedule: Q01DX009 (ip), vehicle: saline) was 90 % of control and the T/C (dose: 1.0 mg/kg/injection, schedule: Q01DX010 (ip), vehicle: saline) was 95 % of control. For the same compound, the T/C (dose: 1.0 mg/kg/injection, schedule: Q04DX003 (ip), vehicle: saline) was 100 % of control and the T/C (dose: 2.0 mg/kg/injection, schedule: Q04DX003 (ip), vehicle: saline) was 100 % of control.
With CCCCNC(C)(C)C(SSSC(c1cccs1)C(C)(C)NCCCC)c1cccs1 (stereo not drawn) the T/C (dose: 44.0 mg/kg/injection, schedule: Q04DX003 (ip), vehicle: saline with Tween-80) was 113 % of control, the T/C (dose: 50.0 mg/kg/injection, schedule: Q01DX009 (ip), vehicle: saline with Tween-80) was 118 % of control and the T/C (dose: 66.0 mg/kg/injection, schedule: Q04DX003 (ip), vehicle: saline with Tween-80) was 100 % of control. For the same compound, the T/C [1] was 122 % of control, the T/C [4] was 118 % of control and the T/C (dose: 150.0 mg/kg/injection, schedule: Q04DX003 (ip), vehicle: saline with Tween-80) was 109 % of control. For the same compound, the T/C [2] was 118 % of control, the T/C (dose: 200.0 mg/kg/injection, schedule: Q04DX003 (ip), vehicle: saline with Tween-80) was 118 % of control and the T/C (dose: 400.0 mg/kg/injection, schedule: Q04DX003 (ip), vehicle: saline with Tween-80) was 122 % of control.
With Cc1ccc(NC(=O)c2ccc(C)c([N+](=O)[O-])c2)c(C)c1 the T/C (dose: 100.0 mg/kg/injection, schedule: Q01DX008 (sc), vehicle: olive oil, sesame oil, peanut oil) was 87 % of control, the T/C (dose: 100.0 mg/kg/injection, schedule: Q04DX003 (sc), vehicle: olive oil, sesame oil, peanut oil) was 88 % of control and the T/C (dose: 200.0 mg/kg/injection, schedule: Q01DX008 (sc), vehicle: olive oil, sesame oil, peanut oil) was 100 % of control. The T/C (dose: 200.0 mg/kg/injection, schedule: Q04DX003 (sc), vehicle: olive oil, sesame oil, peanut oil) was 88 % of control, the T/C (dose: 400.0 mg/kg/injection, schedule: Q01DX008 (sc), vehicle: olive oil, sesame oil, peanut oil) was 87 % of control and the T/C (dose: 400.0 mg/kg/injection, schedule: Q04DX003 (sc), vehicle: olive oil, sesame oil, peanut oil) was 92 % of control.
In the case of NC12CC3CC(CC(C3)C1)C2, the T/C (dose: 25.0 mg/kg/injection, schedule: Q01DX010 (ip), vehicle: saline) is reported as 100 % of control, the T/C (dose: 50.0 mg/kg/injection, schedule: Q01DX010 (ip), vehicle: saline) is reported as 100 % of control and the T/C (dose: 100.0 mg/kg/injection, schedule: Q01DX010 (ip), vehicle: saline) is reported as 100 % of control.
CCCCCCCCCCCCCCCCCC(=O)NN was tested, and the T/C (dose: 12.5 mg/kg/injection, schedule: Q04DX003 (ip), vehicle: saline with Tween-80) was 105 % of control, the T/C (dose: 25.0 mg/kg/injection, schedule: Q04DX003 (ip), vehicle: saline with Tween-80) was 98 % of control and the T/C (dose: 50.0 mg/kg/injection, schedule: Q04DX003 (ip), vehicle: saline with Tween-80) was 98 % of control.
For c1ccc(CCN2COc3c(ccc4cccnc34)C2)cc1, the T/C [4] was 95 % of control.
For Nc1ccccc1-c1ccc([N+](=O)[O-])cc1, the T/C (dose: 100.0 mg/kg/injection, schedule: Q01DX001 (ip), vehicle: saline with Tween-80) was 95 % of control, the T/C (dose: 200.0 mg/kg/injection, schedule: Q01DX001 (ip), vehicle: saline with Tween-80) was 100 % of control and the T/C (dose: 400.0 mg/kg/injection, schedule: Q01DX001 (ip), vehicle: saline with Tween-80) was 91 % of control.
With Nc1c(Cl)c(Cl)nc(C(=O)O)c1Cl the T/C (dose: 2.5 mg/kg/injection, schedule: Q01DX009 (ip), vehicle: saline) was 102 % of control, the T/C (dose: 5.0 mg/kg/injection, schedule: Q01DX009 (ip), vehicle: saline) was 106 % of control and the T/C (dose: 6.25 mg/kg/injection, schedule: Q01DX009 (ip), vehicle: Klucel (hydroxypropylcellulose) (HPC)) was 104 % of control. The T/C (dose: 10.0 mg/kg/injection, schedule: Q01DX009 (ip), vehicle: saline) was 113 % of control, the T/C (dose: 12.5 mg/kg/injection, schedule: Q01DX009 (ip), vehicle: Klucel (hydroxypropylcellulose) (HPC)) was 95 % of control and the T/C (dose: 20.0 mg/kg/injection, schedule: Q01DX009 (ip), vehicle: saline) was 115 % of control. The T/C (dose: 25.0 mg/kg/injection, schedule: Q01DX009 (ip), vehicle: Klucel (hydroxypropylcellulose) (HPC)) was 104 % of control, the T/C (dose: 40.0 mg/kg/injection, schedule: Q01DX009 (ip), vehicle: saline) was 106 % of control and the T/C (dose: 50.0 mg/kg/injection, schedule: Q01DX009 (ip), vehicle: Klucel (hydroxypropylcellulose) (HPC)) was 106 % of control. For the same compound, the T/C [5] was 98 % of control.
COc1ccc(-c2cc(=O)c3cc(OC)c(OC)cc3o2)cc1OC was tested, and the T/C (dose: 1.88 mg/kg/injection, schedule: Q01DX009 (ip), vehicle: saline) was 94 % of control and the T/C (dose: 3.75 mg/kg/injection, schedule: Q01DX009 (ip), vehicle: saline) was 91 % of control.
With C/C(N=Nc1ccc([N+](=O)[O-])cc1)=N\Nc1ccccc1 the T/C [5] was 94 % of control, the T/C (dose: 100.0 mg/kg/injection, schedule: Q04DX003 (ip), vehicle: Klucel (hydroxypropylcellulose) (HPC)) was 91 % of control and the T/C (dose: 200.0 mg/kg/injection, schedule: Q01DX009 (ip), vehicle: Klucel (hydroxypropylcellulose) (HPC)) was 100 % of control. For the same compound, the T/C (dose: 200.0 mg/kg/injection, schedule: Q04DX003 (ip), vehicle: Klucel (hydroxypropylcellulose) (HPC)) was 87 % of control, the T/C (dose: 400.0 mg/kg/injection, schedule: Q01DX009 (ip), vehicle: Klucel (hydroxypropylcellulose) (HPC)) was 100 % of control and the T/C (dose: 400.0 mg/kg/injection, schedule: Q04DX003 (ip), vehicle: Klucel (hydroxypropylcellulose) (HPC)) was 104 % of control.
With Nc1nc2c(c(=O)[nH]1)N(C=O)C(CNc1ccc(C(=O)N[C@@H](CCC(=O)O)C(=O)O)cc1)CN2 (stereo partly drawn) the T/C [1] was 95 % of control, the T/C [6] was 104 % of control and the T/C [2] was 95 % of control. For the same compound, the T/C [7] was 104 % of control, the T/C [3] was 95 % of control and the T/C (dose: 400.0 mg/kg/injection, schedule: Q04DX003 (ip), vehicle: saline) was 100 % of control.
In the case of CC(=N\[O-])/C(C)=N/O.CC(=N\[O-])/C(C)=N/O.CCCc1ccncc1.[Cl-].[Cl-].[Rh+3], the T/C (dose: 12.5 mg/kg/injection, schedule: Q01DX009 (ip), vehicle: saline) is reported as 100 % of control, the T/C (dose: 25.0 mg/kg/injection, schedule: Q01DX009 (ip), vehicle: saline) is reported as 102 % of control and the T/C (dose: 50.0 mg/kg/injection, schedule: Q01DX009 (ip), vehicle: saline) is reported as 105 % of control. For the same compound, the T/C (dose: 100.0 mg/kg/injection, schedule: Q01DX009 (ip), vehicle: saline) was 102 % of control.
In the case of CC1(C)SC(=S)N(c2ccc([N+](=O)[O-])cc2)C1=O, the T/C (dose: 75.0 mg/kg/injection, schedule: Q01DX009 (ip), vehicle: saline with Tween-80) is reported as 115 % of control, the T/C (dose: 150.0 mg/kg/injection, schedule: Q01DX009 (ip), vehicle: saline with Tween-80) is reported as 113 % of control and the T/C (dose: 300.0 mg/kg/injection, schedule: Q01DX009 (ip), vehicle: saline with Tween-80) is reported as 96 % of control.
In the case of COC1C(OC(=O)/C=C/C=C/C=C/C=C/C(=O)O)CCC2(CO2)C1C1(C)OC1CC=C(C)C (stereo not drawn), the T/C (dose: 88.0 mg/kg/injection, schedule: Q04DX003 (ip), vehicle: saline with Tween-80) is reported as 281 % of control, the T/C [6] is reported as 100 % of control and the T/C (dose: 132.0 mg/kg/injection, schedule: Q04DX003 (ip), vehicle: saline with Tween-80) is reported as 281 % of control. The T/C [7] was 117 % of control.
With CC(C)(C)OC(=O)NCC(=O)N1CCCC1C(=O)O (stereo not drawn) (Boc-Gly-[ξP]-OH) the T/C (dose: 50.0 mg/kg/injection, schedule: Q01DX005 (ip), vehicle: saline) was 92 % of control, the T/C (dose: 100.0 mg/kg/injection, schedule: Q01DX005 (ip), vehicle: saline) was 90 % of control and the T/C (dose: 200.0 mg/kg/injection, schedule: Q01DX005 (ip), vehicle: saline) was 100 % of control.
With [NH-]CC([NH-])=O.[NH-]CC([NH-])=O.[Ni] the T/C (dose: 5.0 mg/kg/injection, schedule: Q01DX009 (ip), vehicle: water) was 105 % of control, the T/C (dose: 10.0 mg/kg/injection, schedule: Q01DX009 (ip), vehicle: water) was 105 % of control and the T/C (dose: 12.5 mg/kg/injection, schedule: Q04DX003 (ip), vehicle: water) was 95 % of control. For the same compound, the T/C (dose: 25.0 mg/kg/injection, schedule: Q04DX003 (ip), vehicle: water) was 109 % of control.
